Here are results for four compounds from publication PMC4349623 (BMC Biochemistry, 2015).

In general, koff refers to the first-order rate constant of dissociation. Low readings indicate slow dissociation, high ones fast dissociation. One may read the stoichiometry N as the number of molecules, sites or subunits per partner or assembly.

One data set relates to CaM. The experiment in a line: Stern-Volmer quenching of CaM-bound ANS by acrylamide. From the text:
Given that steady state fluorescence cannot differentiate the intensity contribution from individual ANS molecules, we utilized time-correlated single-photon counting (TCSPC) spectrometry to measure the ANS fluorescence decay. […] The data was best fit with a three-exponential-decay function. The shortest lifetime (τ3 = ~0.3 ns) was assigned to that of free ANS molecules, which was confirmed by using an ANS solution alone. Note that this lifetime reaches the detection limitation of our instrument and therefore, it cannot be determined precisely. […] The fitting also provided the fractional (or relative amplitude), fs, which weights the “amount” of the emitting species, and the normalized pre-exponential value, Bs, which provides the relative concentration of each species. […] In other words, the long lifetime component of ANS is one order less quenched by acrylamide.
For a quenching that is purely by collision, the steady-state and lifetime Stern-Volmer quenching equation can be expressed as4 <τo>/<τ>=1+KsvQandKsv=kqxτ0 where τ and τo are the lifetime in the presence and absence of the quencher, and kq is the quenching rate constant.

The nature of data set [1]: Far-UV circular dichroism. The following applies: Ca^2+-bound, 0.1 mg/ml protein, 10 mM Tris, pH 7.5.
Procedure: The CD spectra were recorded in a JASCO J-715 instrument (JASCO Corporation, Japan) equipped with a temperature control unit. CD spectra were recorded using a cylindrical 0.1 cm path length quartz curvet and were shown as the average of 3–6 scans using a spectra bandwidth of 1.0 nm. In all measurements, 0.1 mg/ml proteins in 10 mM Tris, pH 7.5 with 1–2 mM Ca^2+ or 0.5 mM EDTA were scanned from 190 nm to 260 nm.
Data set [2] can be described thus: ANS steady-state fluorescence (hydrophobicity probe). It is filed as biochemical. The following applies: for ANS fold enhancement: pH 7.5, 0.1 M NaCl, 2 mM Ca^2+. An excerpt:
It is well known that the exposure of the hydrophobic patches of CaM is essential for target protein recognition. Such hydrophobic exposure can be photometrically monitored by its interaction with extrinsic 1-anilinonaphthalene 8-sulfonate (ANS) and 2-p-toluidinyl-naphthalene-6-sulfonate (TNS) molecules. These two fluorophores have been widely used as a probe for measuring hydrophobicity. ANS is a fluorescent dye which emits very weak fluorescence in water due to its excited charge transfer (CT) state that is quenched easily by water molecules. […] ANS fluorescence increases dramatically in a hydrophobic environment or when the rotational motion of its phenylamino group is restricted. […] The fluorescence increased when Ca^2+ was included in the mixture.
ANS fluorescence was excited at 350 nm.
Absorption measurements were carried out using a UV-1800 double-beam spectrometer (Shimadzu, Kyoto, Japan). The fluorescence spectra were recorded on a FluoroMax-3P (Horiba Scientific) equipped with a temperature control unit. For intrinsic Trp fluorescence, the excitation wavelength of 295 nm was chosen. […] The samples containing ANS or dansyl-labeled proteins were excited at 350 and 370 nm, respectively. The slit widths of 2 and 5 nm were typically chosen for excitation and emission, respectively, to eliminate photobleaching.

Data set [3] can be described thus: ANS binding by isothermal titration calorimetry. Particulars: 30 mM Hepes, 25°C. From the text:
The heat evolved is proportional to the amount of the ANS/Ca^2+-CaM complex formation. […] We fit the data with “one set of sites” to obtain the apparent association binding constant (Kapp) of 2.10 ± 0.11 × 10^3 M^−1 for Ca^2+-CaM (Table 1), consistent with a previous report. […] Based on our studies, the middle point from the ITC thermogram (and the inflection point in the corresponding derived binding isotherm) indicates approximately 4–6 bound-ANS molecules in Ca^2+-CaM. Therefore, Kapp is proportional to the actual number of protein-bound ANS molecules in the experimental condition. In the text below, we will discuss Kapp as the ANS binding affinity for simplicity.
The ITC data were fit with a “one set of sites” model as described in the Experimental section.
The ITC experiments were carried out on a VP-ITC (GE, Pittsburgh, PA). Protein samples were buffer-exchanged to the desired buffer. Peptide concentration was prepared by adding buffer to the peptide powder as measured by weight. All samples were degassed 15–30 min before loading. To avoid buffer mismatch, the syringe and sample cells were rinsed with the desired buffer prior to sample loading. A typical titration was performed by sequential injections every 120–180 sec of 5–10 μL solution at 25°C. The ITC raw data was corrected for the heat of titrant dilution determined by an experiment conducted in identical conditions except that no protein was contained in the sample cell. The corrected data, after integration of heat evolved, was fitted with Origin software provided by the manufacturer to determine Ka and the observed or apparent ΔH (ΔHapp).

In a further data set the target is dansyl-labeled CaM(1TnC). As to the kind of experiment: stopped-flow fluorescence (dissociation chase); 5 uM dansyl-labeled CaM or chimera with 15 uM Orai-CMBD, 2 mM Ca2+, mixed with 75 uM unlabeled CaM, 2 mM Ca2+; dansyl fluorescence decay (excitation 370 nm), single exponential fit.
Data set [4] deals with CaM(1TnC): domain 1 of TnC and domains 2, 3 and 4 of CaM. As to the kind of experiment: ITC; 1 mM Orai-CMBD titrated into 30 uM CaM or chimera; 10 mM Tris, pH 7.5, 0.1 M NaCl, 2 mM Ca2+, 25°C; 'one set of sites' or two sequential binding sites model. In general terms: ITC needs no label: the signal is the heat of the interaction.
The conditions of data set [5]: ref [13]; cited from earlier work. An excerpt: It is well known that the exposure of the hydrophobic patches of CaM is essential for target protein recognition. Such hydrophobic exposure can be photometrically monitored by its interaction with extrinsic 1-anilinonaphthalene 8-sulfonate (ANS) and 2-p-toluidinyl-naphthalene-6-sulfonate (TNS) molecules. These two fluorophores have been widely used as a probe for measuring hydrophobicity. ANS is a fluorescent dye which emits very weak fluorescence in water due to its excited charge transfer (CT) state that is quenched easily by water molecules.

The next data set concerns nNOS. The following applies: ref [12]; cited from earlier work. An excerpt:
(§1) Given the structural similarities and functional differences of CaM an ...

For data set [6] the following is noted: no reference given; cited from earlier work.
Excerpt: as §1

The subject of a further data set is Ca^2+-ATPase. The following applies: ref [13]; cited from earlier work.
Excerpt: as §1

With `O=S(=O)(O)c1cccc2cccc(Nc3ccccc3)c12` [ANS, 1-anilinonaphthalene 8-sulfonate], the “kq (quenching rate constant), short lifetime” value in the data set with CaM (τ1 ANS) turned out to be 2.2e+08 M⁻¹ s⁻¹. Moreover, in the data set with CaM (τ2 ANS), the “kq (quenching rate constant), τ2” value is 1.9e+07 M⁻¹ s⁻¹.
With Calmodulin [CaM], the “ellipticity ratio θ220/θ209” value in [1] is on record as ~ 1. Besides, the “increase of ANS fluorescence intensity on Orai-CMBD binding” value in data set [2] (Ca^2+-bound protein) is recorded as ~ 10%. Moreover, the ANS fluorescence change entry in data set [2] (absence of Ca^2+) is given as “exhibited no change”. Further, the ANS enhancement in data set [2] (in the absence of salt, 30 mM Hepes, pH 7.5, 2 mM Ca^2+, spectra integration vs apo protein, at least three repeats, three protein batches) came to 3.01 ± 0.12 fold. The ANS fold enhancement in data set [2] (in the presence of salt and Orai-CMBD, 30 mM Hepes, vs apo protein) is recorded as 3.87 ± 0.10 fold; in data set [2] (in the presence of salt, 30 mM Hepes, spectra integration vs apo protein) it was 3.49 ± 0.07 fold. Further, the K app in data set [3] (in the absence of salt, pH 7.5, 2 mM Ca^2+, apparent association constant, one set of sites) is 2.10 ± 0.11 × 10^3 M^−1; in data set [3] (in the presence of salt and Orai-CMBD, pH 7.5, 0.1 M NaCl, 2 mM Ca^2+), 3.43 ± 0.65 × 10^3 M^−1; in [3] (in the presence of salt, pH 7.5, 0.1 M NaCl, 2 mM Ca^2+, apparent association constant), 3.69 ± 0.08 × 10^3 M^−1.
Compound “Orai-CMBD, 24-residue peptide corresponding to the CaM-binding domain of Orai1 (residues 68-91)” yielded a koff with dansyl-labeled CaM(1TnC) of 2.44 s⁻¹. In data set [4], this compound came in with a Ka1 (first of two sequential sites) of 757000 M⁻¹, a Ka2 (second of two sequential sites) of 17000 M⁻¹, a dH1 (first of two sequential sites) of -4.99 kcal/mol and a dH2 (second of two sequential sites) of -3.33 kcal/mol. Further, the stoichiometry N in [4] was 2.
Regarding Troponin C [TnC], the “interaction with ANS” value in data set [5] is “no interaction between TnC and ANS”. Also, in the data set with nNOS, the “binding to / activation of nNOS” value is on record as “can neither bind to nor activate nNOS”. The “Ca^2+ affinity of EF4 relative to that of CaM” value in data set [6] is listed as “one order higher”. The “affinity for Ca^2+-ATPase” value in the data set on Ca^2+-ATPase is on record as “very low affinity”.
